Experimental findings from patent US8501446B2 (Vertex Pharmaceuticals Incorporated, priority 2004, dated 2013) are described below.

SMILES strings stand for the structures. pKi: −log10 of the molar value. Like-named read-outs stand apart in the source and are kept apart here.

Assay type in all cases: biochemical
One test deals with ROCK (Homo sapiens, UniProt Q13464). Put plainly: ROCK inhibition assay, standard radioactive enzyme assay ("33P"). The method, then: Some compounds were screened for their ability to inhibit ROCK using a standard radioactive enzyme assay. Assays were carried out in a solution containing 100 mM HEPES (pH 7.5), 10 mM MgCl2, 25 mM NaCl, 2 mM DTT, and 1.5% DMSO. Final substrate concentrations in the assay were 13 μM [γ-^33P] ATP (25 mCi ^33P ATP/mmol ATP, Perkin Elmer, Cambridge, Mass./Sigma Chemicals, St Louis, Mo.) and 27 μM Myelin Basic Protein (MBP). Final enzyme concentration in the assay was 5 nM ROCK. Assays were carried out at room temperature. 1.5 μl of DMSO stock containing serial dilutions of the compound of the present invention (concentrations ranging from 10 μM to 2.6 nM) was placed in a 96 well plate. 50 μl of Solution 1 (100 mM HEPES (pH 7.5), 10 mM MgCl2, […]) was added to the plate. The reaction was initiated by addition of 50 μl of Solution 2 (100 mM HEPES (pH 7.5), 10 mM MgCl2, 4 mM DTT, […] and 10 nM ROCK). After 2 hours the reaction was quenched with 50 μL of 30% trichloroacetic acid (TCA, Fisher) containing 9 mM ATP. Transfer of 140 μL of the quenched reaction to a glass fiber filter plate (Corning, Cat. No. 3511) was followed by washing 3 times with 5% TCA. 50 μL of Optima Gold scintillation fluid (Perkin Elmer) was added and the plates were counted on a Top Count (Perkin Elmer). After removing mean background values for all of the data points the data was fit using Prism software to obtain a Ki(app).

A further test addresses JAK2 (Homo sapiens, UniProt O60674). The test is described as follows: JAK2 inhibition assay (radioactive enzyme assay, as for JAK3). To be noted: average Ki if more than one value determined. Summed up: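 Both kinases: poly(Glu)4Tyr substrate in 100 mM HEPES pH 7.4, 10 mM MgCl2, 1 mM DTT. Run 20 min at 25° C, TCA stop, filter-bound ³³P counted, Ki(app) fitted after background subtraction. JAK3: final [γ-³³P]ATP 5 μM, enzyme added as 2 nM solution. JAK2: final poly(Glu)4Tyr 15 μM, final ATP 12 μM.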

The target in a further test is T1, JAK3 (Homo sapiens, UniProt P52333).
T1 sequence (P52333 1-1124): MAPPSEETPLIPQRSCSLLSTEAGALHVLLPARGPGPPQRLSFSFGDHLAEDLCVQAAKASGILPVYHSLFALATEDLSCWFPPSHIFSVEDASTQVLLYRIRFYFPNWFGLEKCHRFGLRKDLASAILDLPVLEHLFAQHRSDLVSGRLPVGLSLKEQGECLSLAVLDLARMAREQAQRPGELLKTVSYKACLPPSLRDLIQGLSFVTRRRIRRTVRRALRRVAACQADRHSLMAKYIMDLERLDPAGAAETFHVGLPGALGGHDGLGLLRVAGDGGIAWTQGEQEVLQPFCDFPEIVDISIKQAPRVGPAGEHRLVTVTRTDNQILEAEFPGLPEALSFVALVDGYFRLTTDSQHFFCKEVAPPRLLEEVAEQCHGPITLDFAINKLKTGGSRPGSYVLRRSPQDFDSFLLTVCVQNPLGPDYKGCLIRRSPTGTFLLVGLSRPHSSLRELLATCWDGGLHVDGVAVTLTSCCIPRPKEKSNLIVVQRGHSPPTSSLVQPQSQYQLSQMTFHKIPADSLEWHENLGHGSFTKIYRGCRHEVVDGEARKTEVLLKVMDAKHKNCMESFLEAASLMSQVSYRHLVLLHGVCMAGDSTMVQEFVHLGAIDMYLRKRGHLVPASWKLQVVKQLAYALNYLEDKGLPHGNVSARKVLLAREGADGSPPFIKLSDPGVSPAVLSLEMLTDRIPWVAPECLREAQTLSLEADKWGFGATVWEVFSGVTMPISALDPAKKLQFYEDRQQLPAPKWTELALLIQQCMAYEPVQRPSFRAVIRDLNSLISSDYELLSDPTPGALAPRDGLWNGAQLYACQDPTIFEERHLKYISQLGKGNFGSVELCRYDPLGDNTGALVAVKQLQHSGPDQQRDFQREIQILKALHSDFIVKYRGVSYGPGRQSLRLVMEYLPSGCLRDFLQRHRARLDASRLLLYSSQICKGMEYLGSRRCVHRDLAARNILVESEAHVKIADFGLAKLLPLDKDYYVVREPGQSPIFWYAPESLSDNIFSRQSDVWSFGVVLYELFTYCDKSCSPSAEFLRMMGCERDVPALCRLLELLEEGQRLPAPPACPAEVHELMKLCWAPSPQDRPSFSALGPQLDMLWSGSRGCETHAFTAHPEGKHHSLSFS
The test is described as follows: JAK3 inhibition assay (standard radioactive enzyme assay). To be noted: average Ki if more than one value determined.

In the next test the target is T2, ROCK I (AA 6-553) (Homo sapiens, UniProt Q13464).
T2 construct: ROCK I (AA 6-553)
Put plainly: ROCK inhibition assay, standard coupled enzyme system ("Enzyme"). To be noted: enzyme-linked assay. In a few lines:
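ROCK I (AA 6-553) at 45 nM and 30 °C with 45 μM ATP and 200 μM peptide, in 100 mM HEPES pH 7.5, 10 mM MgCl2, 25 mM NaCl, 2 mM DTT, 1.5% DMSO. ADP output read by a PK/LDH coupled system: 2.5 mM PEP, 350 μM NADH, 30 μg/ml PK, 10 μg/ml LDH.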

For test [1], the target named is T3, full length Aurora-A (AA 1-403) (Homo sapiens, UniProt O14965).
T3 construct: full length Aurora-A (AA 1-403)
T3 sequence (O14965 1-403): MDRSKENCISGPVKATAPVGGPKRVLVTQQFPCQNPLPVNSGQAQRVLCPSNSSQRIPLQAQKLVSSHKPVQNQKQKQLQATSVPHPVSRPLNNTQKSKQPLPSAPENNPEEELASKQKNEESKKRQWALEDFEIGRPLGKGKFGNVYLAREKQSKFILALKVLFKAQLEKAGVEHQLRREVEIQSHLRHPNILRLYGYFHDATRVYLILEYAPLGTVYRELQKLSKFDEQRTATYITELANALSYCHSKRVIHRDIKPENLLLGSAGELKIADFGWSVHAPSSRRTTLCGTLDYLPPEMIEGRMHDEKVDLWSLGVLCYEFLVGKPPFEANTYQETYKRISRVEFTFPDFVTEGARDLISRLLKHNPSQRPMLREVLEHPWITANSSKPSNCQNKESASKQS
The test is described as follows: Aurora-A inhibition assay, standard coupled enzyme system. To be noted: average Ki if more than one value determined.

ROCK, sequence (Q13464 whole entry): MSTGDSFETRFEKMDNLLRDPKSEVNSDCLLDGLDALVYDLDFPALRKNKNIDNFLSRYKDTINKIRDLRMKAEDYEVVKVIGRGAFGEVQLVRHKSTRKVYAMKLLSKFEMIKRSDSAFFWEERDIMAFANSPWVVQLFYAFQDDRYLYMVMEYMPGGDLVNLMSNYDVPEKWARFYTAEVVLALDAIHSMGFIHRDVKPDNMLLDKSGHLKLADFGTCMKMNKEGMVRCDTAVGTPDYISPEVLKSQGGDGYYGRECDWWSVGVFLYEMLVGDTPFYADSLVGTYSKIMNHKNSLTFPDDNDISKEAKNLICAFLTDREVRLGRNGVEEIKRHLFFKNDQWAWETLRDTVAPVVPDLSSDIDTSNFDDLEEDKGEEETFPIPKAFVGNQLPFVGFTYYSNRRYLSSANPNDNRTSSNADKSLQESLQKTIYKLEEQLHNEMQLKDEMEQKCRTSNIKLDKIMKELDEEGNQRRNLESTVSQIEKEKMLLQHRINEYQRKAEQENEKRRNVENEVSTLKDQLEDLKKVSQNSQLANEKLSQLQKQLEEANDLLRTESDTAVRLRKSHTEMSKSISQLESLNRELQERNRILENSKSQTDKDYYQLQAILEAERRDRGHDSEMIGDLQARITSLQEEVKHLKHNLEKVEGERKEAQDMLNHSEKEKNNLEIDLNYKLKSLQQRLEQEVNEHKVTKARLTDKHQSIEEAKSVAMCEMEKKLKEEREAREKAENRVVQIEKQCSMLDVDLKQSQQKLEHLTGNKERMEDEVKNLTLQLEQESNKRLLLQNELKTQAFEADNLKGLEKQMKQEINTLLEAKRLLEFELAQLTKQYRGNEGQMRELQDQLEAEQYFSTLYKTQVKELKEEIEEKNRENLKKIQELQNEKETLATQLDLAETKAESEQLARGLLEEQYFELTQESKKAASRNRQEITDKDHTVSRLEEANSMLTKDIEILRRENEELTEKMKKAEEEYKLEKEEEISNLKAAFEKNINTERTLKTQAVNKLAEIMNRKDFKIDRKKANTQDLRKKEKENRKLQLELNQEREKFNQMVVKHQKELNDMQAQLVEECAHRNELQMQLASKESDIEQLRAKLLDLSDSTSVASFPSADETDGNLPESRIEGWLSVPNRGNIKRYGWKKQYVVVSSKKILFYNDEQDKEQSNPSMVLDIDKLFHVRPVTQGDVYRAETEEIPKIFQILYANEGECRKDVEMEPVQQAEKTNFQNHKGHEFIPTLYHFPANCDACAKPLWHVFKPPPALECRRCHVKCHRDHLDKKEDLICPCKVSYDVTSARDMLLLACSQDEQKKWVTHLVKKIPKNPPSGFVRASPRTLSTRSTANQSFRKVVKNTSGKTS
T2 sequence (Q13464 6-553, species assumed): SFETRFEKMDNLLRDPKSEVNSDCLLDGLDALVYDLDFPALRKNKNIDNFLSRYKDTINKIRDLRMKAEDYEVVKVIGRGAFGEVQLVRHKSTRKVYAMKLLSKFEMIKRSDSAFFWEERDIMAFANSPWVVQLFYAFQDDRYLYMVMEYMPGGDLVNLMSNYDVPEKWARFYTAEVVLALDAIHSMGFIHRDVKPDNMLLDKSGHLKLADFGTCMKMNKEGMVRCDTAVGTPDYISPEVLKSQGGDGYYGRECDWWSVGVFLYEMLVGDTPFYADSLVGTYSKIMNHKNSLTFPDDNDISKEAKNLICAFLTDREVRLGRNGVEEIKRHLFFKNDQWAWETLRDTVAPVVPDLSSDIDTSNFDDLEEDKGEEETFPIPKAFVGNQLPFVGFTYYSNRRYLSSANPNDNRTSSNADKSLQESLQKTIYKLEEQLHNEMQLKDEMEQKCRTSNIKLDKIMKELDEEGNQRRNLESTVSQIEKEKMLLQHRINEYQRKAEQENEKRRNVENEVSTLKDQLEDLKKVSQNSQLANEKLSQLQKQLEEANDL
JAK2, sequence (O60674 whole entry, species assumed): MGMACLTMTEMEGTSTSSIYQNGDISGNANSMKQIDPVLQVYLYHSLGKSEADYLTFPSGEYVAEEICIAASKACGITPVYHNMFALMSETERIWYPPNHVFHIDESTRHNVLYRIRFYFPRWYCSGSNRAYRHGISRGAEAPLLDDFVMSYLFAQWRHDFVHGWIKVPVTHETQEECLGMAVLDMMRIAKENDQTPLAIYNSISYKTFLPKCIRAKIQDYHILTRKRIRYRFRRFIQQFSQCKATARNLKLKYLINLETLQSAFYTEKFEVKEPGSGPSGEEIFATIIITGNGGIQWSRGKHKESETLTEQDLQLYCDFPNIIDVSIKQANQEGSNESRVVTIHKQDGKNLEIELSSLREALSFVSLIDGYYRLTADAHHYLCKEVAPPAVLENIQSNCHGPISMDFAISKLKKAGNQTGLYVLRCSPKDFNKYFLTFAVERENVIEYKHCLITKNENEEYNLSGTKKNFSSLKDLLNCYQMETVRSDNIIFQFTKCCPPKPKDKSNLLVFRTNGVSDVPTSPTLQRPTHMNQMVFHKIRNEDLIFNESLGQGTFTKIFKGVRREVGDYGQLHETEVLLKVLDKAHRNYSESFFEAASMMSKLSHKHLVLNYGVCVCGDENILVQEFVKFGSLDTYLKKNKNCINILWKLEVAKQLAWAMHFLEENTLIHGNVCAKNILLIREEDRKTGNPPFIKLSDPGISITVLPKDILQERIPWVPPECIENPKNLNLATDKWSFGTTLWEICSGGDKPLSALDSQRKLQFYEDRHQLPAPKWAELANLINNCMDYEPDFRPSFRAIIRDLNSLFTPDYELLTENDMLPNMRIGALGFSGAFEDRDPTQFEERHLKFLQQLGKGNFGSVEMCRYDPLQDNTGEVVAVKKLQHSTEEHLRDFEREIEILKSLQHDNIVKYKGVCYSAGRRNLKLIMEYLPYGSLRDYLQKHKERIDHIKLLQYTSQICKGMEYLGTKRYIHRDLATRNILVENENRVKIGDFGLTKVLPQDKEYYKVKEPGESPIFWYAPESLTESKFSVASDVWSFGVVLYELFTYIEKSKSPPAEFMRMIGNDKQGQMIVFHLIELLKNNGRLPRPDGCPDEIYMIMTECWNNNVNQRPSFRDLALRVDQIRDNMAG

Usually pKi stands for −log10 of the Ki, conventionally taken in molar units. Consider `Nc1cccc(CNc2cc(-c3c[nH]c4ncccc34)ncn2)c1` [Compound 28], for which the pKi at ROCK, on JAK2 and on JAK3 was more than 6.30 throughout.

Take `CCCOC(=O)N1CCCN(c2nccc(-c3c[nH]c4ncc(OC)cc34)n2)CC1` [Compound 34]: the pKi at ROCK is 5.30 to 6.30; at JAK2 it was more than 6.30; at ROCK I (AA 6-553), more than 6.30; on JAK3, more than 6.30.

For the molecule `Fc1cccc(CNc2cc(-c3c[nH]c4ncccc34)ncn2)c1` [Compound 16], the pKi on ROCK, at JAK2 and at JAK3 was more than 6.30 each time.

Consider `CC(=O)N1CCCN(c2nccc(-c3c[nH]c4ncc(Cl)cc34)n2)CC1` [Compound 5], for which the negative-log Ki (pKi) was 5.30 to 6.30 at ROCK, more than 6.30 at JAK2 and more than 6.30 on JAK3.

On to `c1ccc(-c2cccc(CNc3cc(-c4c[nH]c5ncccc45)ncn3)c2)cc1` [Compound 23], for which the pKi at ROCK is more than 6.30; at JAK2 it was 5.30 to 6.30; at JAK3, 5.30 to 6.30.

Take `Fc1ccc(CNc2cc(-c3c[nH]c4ncccc34)ncn2)cc1` [Compound 27]: the negative-log Ki (pKi) at ROCK, at JAK2 and at JAK3 was more than 6.30 each time.

For the molecule `c1cncc(CNc2nccc(-c3c[nH]c4ncccc34)n2)c1` [Compound 6], the pKi on ROCK, at JAK2 and on JAK3 was more than 6.30 each time.

With `COc1cnc2[nH]cc(-c3cc(N[C@H](C)c4ccccc4)ncn3)c2c1` [Compound 13], the results for the pKi on ROCK, at JAK2 and on JAK3 were 5.30 to 6.30, more than 6.30 and more than 6.30, respectively.

`CS(=O)(=O)c1cccc(-c2c[nH]c3ncc(-c4ccccc4)cc23)c1` [Compound 218]: the pKi (on ROCK; on ROCK I (AA 6-553); in test [1]) was more than 6.30 throughout.

Regarding `CCS(=O)(=O)N1CCCN(c2nccc(-c3c[nH]c4ncc(OC)cc34)n2)CC1` [Compound 31], the pKi at ROCK, at JAK2 and at JAK3 was more than 6.30 each time.

As for `Brc1cnc2[nH]c(-c3ccccc3)c(-c3ccc(N4CCOCC4)cc3)c2c1` [Compound 217], the pKi was 5.30 to 6.30 at ROCK, 5.30 to 6.30 at ROCK I (AA 6-553) and more than 6.30 in test [1].

`CC(=O)N1[C@H](C)CN(c2cccc(-c3c[nH]c4ncc(NC(=O)OC(C)(C)C)cc34)n2)C[C@@H]1C` [Compound 37]: the pKi at ROCK was more than 6.30; on JAK2 it was more than 6.30; on ROCK I (AA 6-553), 5.30 to 6.30; on JAK3, more than 6.30.

On to `c1ccc(CNc2ccnc(-c3c[nH]c4ncccc34)n2)cc1` [Compound 11, Benzyl-[2-(1H-pyrrolo[2,3-b]pyridin-3-yl)-pyrimidin-4-yl]amine], for which the pKi at ROCK (Ki(app)), on JAK2 (Ki(app)) and at JAK3 (Ki(app)) was more than 6.30 throughout.

For the molecule `CC(=O)N1CCCN(c2nccc(-c3c[nH]c4ncc(C(N)=O)cc34)n2)CC1` [Compound 1], the values for the pKi at ROCK, at JAK2 and on JAK3 were 5.30 to 6.30, more than 6.30 and more than 6.30, respectively.

As for `c1ccc(CNc2nccc(-c3c[nH]c4ncc(-c5cccnc5)cc34)n2)cc1` [Compound 2], the results for the pKi on ROCK, at JAK2 and at JAK3 were 5.30 to 6.30, more than 6.30 and more than 6.30, respectively.

Turning to `Fc1cc(F)cc(CNc2cc(-c3c[nH]c4ncccc34)ncn2)c1` [Compound 29], the pKi on ROCK, on JAK2 and at JAK3 was more than 6.30 in each case.

As for `C[C@@H]1CCNCC1N(C)c1cc(-c2c[nH]c3ncccc23)ncn1` (some centres unmarked) [Compound 17], the pKi was more than 6.30 on ROCK, 5.30 to 6.30 at JAK2 and 5.30 to 6.30 on JAK3.

Turning to `C[C@@H]1CCN(Cc2ccccc2)CC1N(C)c1cc(-c2c[nH]c3ncccc23)ncn1` (some centres unmarked) [Compound 15], the pKi on ROCK, at JAK2 and at JAK3 was 5.30 to 6.30 each time.

`FC(F)(F)c1cccc(CNc2cc(-c3c[nH]c4ncccc34)ncn2)c1` [Compound 22]: the pKi at ROCK, at JAK2 and on JAK3 was more than 6.30 throughout.

For `COc1cnc2[nH]cc(-c3cc(NCc4ccccc4)ncn3)c2c1` [Compound 12], the negative logarithm of the Ki (pKi) on ROCK, on JAK2 and on JAK3 was more than 6.30 in each case.

As to `Clc1cccc(CNc2cc(-c3c[nH]c4ncccc34)ncn2)c1` [Compound 21], the pKi at ROCK, at JAK2 and on JAK3 was more than 6.30 each time.

For the molecule `c1ccc(-c2cnc3[nH]cc(-c4ccccc4)c3c2)cc1` [Compound 213], the values for the negative-log Ki (pKi) (on ROCK; in test [1]) were 5.30 to 6.30 and more than 6.30, respectively.

`CN(C)C(=O)c1ccc(-c2c[nH]c3ncc(-c4ccccc4)cc23)cc1` [Compound 219]: the negative-log Ki (pKi) at ROCK is 5.30 to 6.30; at ROCK I (AA 6-553), 5.30 to 6.30; in test [1] it was more than 6.30.

`Brc1cnc2[nH]c(-c3ccccc3)c(-c3ccccc3)c2c1` [Compound 211]: the negative-log Ki (pKi) at ROCK is 5.30 to 6.30; in test [1], more than 6.30.

As to `CC(=O)N1CCCN(c2nccc(-c3c[nH]c4ncc(-c5cccnc5)cc34)n2)CC1` [Compound 3], the pKi on ROCK, on JAK2 and on JAK3 was more than 6.30 throughout.

Regarding `COc1ccc(OC)c(-c2c[nH]c3ncc(-c4ccccc4)cc23)c1` [Compound 216], the negative logarithm of the Ki (pKi) is 5.30 to 6.30 at ROCK and more than 6.30 in test [1].

In the case of `CN(Cc1ccccc1)c1cc(-c2c[nH]c3ncccc23)ncn1` [Compound 26], the pKi on ROCK, at JAK2 and at JAK3 was more than 6.30 each time.
